The values below come from patent US8901118B2, “Compounds and methods for kinase modulation, and indications therefor” (Plexxikon Inc., priority 2010, dated 2014).

One assay addresses CYP2C19 (Homo sapiens, UniProt P33261). Briefly: CYP2C19 inhibition (fluorescent substrate CEC). The following applies: read-out: Cyp IC50 2C19. Format: in vitro ADME. On the procedure: (§1) CYP (Cytochrome P450) enzymes are the major drug metabolizing enzymes present in the liver. The inhibition of CYP enzyme activity (IC50) for each of CYP1A2, CYP2C19, CYP2C9, CYP2D6, CYP3A4(BFC) and CYP3A4(BQ) is determined for compounds, where inhibition of metabolism of a known substrate leads to a decrease in the fluorescence of the metabolized product. The fluorescence of the product is monitored as a function of compound concentration. Compounds are dissolved in DMSO to a concentration of 100 mM. These are diluted 1 μL into 82 μL of acetonitrile. An 11 μL aliquot of this solution is then added to 204 μL of cofactor mix (1.3% NADPH Regeneration system Solution A, 1.04% NADPH Regeneration system Solution B from BD Biosciences, 5% acetonitrile and 0.05% DMSO). These are then serially diluted 1:1 (160 μL to 160 μL co-factor mix) for a total of 10 points. A 10 μL aliquot of this final mixture is dispensed into 384 well assay plates and incubated for 10 minutes at 37° C. […] Assay plates are incubated at 37° C. (CYP1A2-15 min; CYP2C9-45 min; CYP2C19, 2D6 and 3A4-30 min) and read in a Tecan Safire 2 plate reader (CYP1A2, 2C19 and 3A4 409 ex/460 em; CYP2C9 and 2D6 409 ex/530 em). The signal versus compound concentration is used to determine the IC50. The enzymes and substrates for this assay are obtained from BD Biosciences.

The target of a further assay is T1, BCR-FMS BaF3 cells (Homo sapiens, UniProt P07333).
T1 construct: fused on or other part: P11274 (Breakpoint cluster region protein)
T1 sequence (P07333 582-910): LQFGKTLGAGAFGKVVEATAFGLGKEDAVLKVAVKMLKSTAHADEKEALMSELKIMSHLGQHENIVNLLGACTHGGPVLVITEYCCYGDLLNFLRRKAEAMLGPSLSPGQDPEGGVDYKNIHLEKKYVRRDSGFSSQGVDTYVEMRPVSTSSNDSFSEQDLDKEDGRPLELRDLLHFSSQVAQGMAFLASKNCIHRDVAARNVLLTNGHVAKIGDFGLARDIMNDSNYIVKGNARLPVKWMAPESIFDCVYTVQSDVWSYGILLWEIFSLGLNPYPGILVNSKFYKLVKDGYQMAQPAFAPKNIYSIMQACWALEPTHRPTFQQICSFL
Briefly: BaF3 BCR-FMS cell proliferation assay (ATPlite). In kind it is cell-based. Conditions: read-out: Inhibition of Cell Proliferation IC50, BCR/BaF3 Fms. On the procedure: Compounds are assessed in a variety of cell based assays. For example BaF3 cells engineered with any of BCR-FMS, BCR-KIT, BCR-FLT3, BCR-NTRK1, BCR-NTRK2, and BCR-NTRK3, are used in cell proliferation assays to assess inhibitory activity of Fms, Kit, Flt-3, TrkA, TrkB, and TrkC, respectively. An MV-4-11 (leukemia) cell proliferation assay is used to assess inhibitory activity in Flt-3, and SKNSH (human neuroblastoma) cell proliferation assay is used to assess efficacy of Fms/Trk inhibitors. Additional cells may be assayed similarly to assess the efficacy of Fms/Trk inhibitors, such as MiaPaCa (human pancreatic cancer) and Capan-1 (human pancreatic carcinoma) cells. Reagent and assay conditions are as follows: • BaF3 cells: • Maintained in RPMI containing 10% FBS, 1% PenStrep, 1% NEAA, and 1% L-Glutamine, supplemented with 1 mg/mL G418 and 5% WEHI-CM (or recombinant murine IL-3). • Confluent cells are split 1:50 to 1:100 every 3-4 days. • MV-4-11 cells: • Maintained in Iscove's Modified Dulbecco's Medium containing 10% FBS. • Confluent cells are split 1:4 every 3-4 days. • SKNSH cells: RPMI containing 10% FBS. On day 1, cells are counted, then centrifuged in a conical tube for 5 minutes at 1000 rpm. The supernatant is removed and cells are re-suspended as follows: • BaF3: resuspend in growth media +1 mg/mL G418 (without WEHFIL-3) to 2×10^5 cells/mL. • MV-4-11: resuspend in growth media to 5×10^5 cells/mL. • SKNSH: resuspend in growth media to 2×10^4 cells/mL. The cells are plated (50 μL, 150 μL for SKNSH cells) in each well of a 96-well dish (Corning 3610) and incubated at 37° C. in 5% CO2 overnight, cells plated to a final concentration of cells as follows: • BaF3: 10,000 cells per well. • MV-4-11: 25,000 cells per well. • SKNSH: 3,000 cells per well. On day 2, compound at a maximum concentration of 5 mM is serially diluted 1:3 for a total of 8 point titration with DMSO as a control. A 1 μL aliquot of each dilution point is added to 249 μL growth media and 50 μL is added to a well containing cells, providing 10 μM compound for the maximum concentration point. The cells are incubated for 3 days at 37° C. in 5% CO2. For SKNSH cells, a 0.75 μL aliquot of appropriate dilution in DMSO is added to 150 μL of cells. On day 5, ATPlite 1 step Luminescence Assay System (Perkin Elmer #6016739) is brought to room temperature along with the cell cultures. ATPlite is added to each well as follows: • BaF3: 25 μL per well. • MV-4-11: 40 μL per well. • SKNSH: 20 μL per well. The cells are incubated at room temperature for 10 minutes, then luminescence is read on Safire reader. The measured luminescence correlates directly with cell number, such that the reading as a function of compound concentration is used to determine the IC50 value.
It is understood that the results of these assays may vary as assay conditions are varied. Inhibition levels determined under the conditions described herein represent a relative activity for the compounds tested under the specific conditions employed. The cell based assays are likely to show variability due to the complexity of the system and the sensitivity thereof to any changes in the assay conditions. […] Results for compounds that are tested and show substantially no inhibition below the highest tested concentration are represented as “-” in the tables below. In some instances, the compounds were not tested in all of the assays, or assay results were not valid, as indicated by NA in the tables below.
Background: Cellular ATP, detected with luciferase, serves as a proxy for viable cell number.

In another assay the target is CYP2C9 (Homo sapiens, UniProt P11712). Briefly: CYP2C9 inhibition (fluorescent substrate MFC). Format: in vitro ADME. Conditions: read-out: Cyp IC50 2C9. On the procedure: as §1
Chain of CYP2C9 (P11712 whole entry): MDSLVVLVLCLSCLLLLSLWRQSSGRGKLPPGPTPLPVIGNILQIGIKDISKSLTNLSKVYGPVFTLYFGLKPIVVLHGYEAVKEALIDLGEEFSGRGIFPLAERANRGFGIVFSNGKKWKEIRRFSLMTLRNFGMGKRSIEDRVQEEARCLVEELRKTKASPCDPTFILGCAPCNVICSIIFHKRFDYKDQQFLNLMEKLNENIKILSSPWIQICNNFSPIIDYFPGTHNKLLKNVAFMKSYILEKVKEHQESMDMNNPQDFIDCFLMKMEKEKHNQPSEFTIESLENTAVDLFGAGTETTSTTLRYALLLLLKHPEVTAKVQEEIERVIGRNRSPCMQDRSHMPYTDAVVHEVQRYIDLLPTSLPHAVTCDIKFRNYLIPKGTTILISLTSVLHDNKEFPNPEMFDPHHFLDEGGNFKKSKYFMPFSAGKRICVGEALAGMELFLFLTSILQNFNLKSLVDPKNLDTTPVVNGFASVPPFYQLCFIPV

Chain of CYP2C19 (P33261 whole entry): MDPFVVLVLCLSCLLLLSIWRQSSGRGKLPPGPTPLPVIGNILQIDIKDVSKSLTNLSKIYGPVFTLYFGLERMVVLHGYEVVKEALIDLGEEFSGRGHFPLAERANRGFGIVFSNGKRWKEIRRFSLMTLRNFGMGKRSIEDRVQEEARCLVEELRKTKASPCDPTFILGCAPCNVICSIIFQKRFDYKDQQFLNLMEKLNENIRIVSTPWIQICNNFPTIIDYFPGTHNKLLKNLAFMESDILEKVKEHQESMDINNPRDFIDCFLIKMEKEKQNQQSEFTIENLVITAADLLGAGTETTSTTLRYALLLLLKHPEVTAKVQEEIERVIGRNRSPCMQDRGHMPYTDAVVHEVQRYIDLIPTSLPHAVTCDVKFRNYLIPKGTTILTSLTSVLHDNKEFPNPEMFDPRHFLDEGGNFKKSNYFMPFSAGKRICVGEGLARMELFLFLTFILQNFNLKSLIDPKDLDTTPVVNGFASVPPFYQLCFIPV

As for `CNc1ncnc2[nH]cc(C(=O)c3ccc(NC4CCC(F)(F)CC4)nc3F)c12` [Compound P-4063, [6-[(4,4-difluorocyclohexyl)amino]-2-fluoro-3-pyridyl]-[4-(methylamino)-7H-pyrrolo[2,3-d]pyrimidin-5-yl]methanone], the IC50 is over 10 µM at CYP2C19, under 0.1 µM at BCR-FMS BaF3 cells and over 10 µM on CYP2C9.

On to `CCc1ccc(Nc2ccc(C(=O)c3c[nH]c4ncnc(NCC(C)(C)O)c34)c(F)n2)cn1` [Compound P-4064, [6-[(6-ethyl-3-pyridyl)amino]-2-fluoro-3-pyridyl]-[4-[(2-hydroxy-2-methyl-propyl)amino]-7H-pyrrolo[2,3-d]pyrimidin-5-yl]methanone], for which the IC50 was over 10 µM on CYP2C19, under 0.1 µM at BCR-FMS BaF3 cells and over 10 µM on CYP2C9.

As for `CCc1ccc(Nc2ccc(C(=O)c3c[nH]c4ncnc(N)c34)c(F)n2)cn1` [Compound P-4065, (4-amino-7H-pyrrolo[2,3-d]pyrimidin-5-yl)-[6-[(6-ethyl-3-pyridyl)amino]-2-fluoro-3-pyridyl]methanone], the values for the IC50 on CYP2C19, at BCR-FMS BaF3 cells and on CYP2C9 were over 10 µM, under 0.1 µM and over 10 µM, respectively.

Turning to `COc1ccc(Nc2ccc(C(=O)c3c[nH]c4ncnc(NC(C)C)c34)c(F)n2)cn1` [Compound P-4066, [2-fluoro-6-[(6-methoxy-3-pyridyl)amino]-3-pyridyl]-[4-(isopropylamino)-7H-pyrrolo[2,3-d]pyrimidin-5-yl]methanone], the IC50 at CYP2C19 is over 10 µM; on BCR-FMS BaF3 cells it was under 0.01 µM; at CYP2C9, over 10 µM.

As to `COc1ccc(Nc2ccc(C(=O)c3c[nH]c4ncnc(NCC5CC5)c34)c(F)n2)cn1` [Compound P-4067, [4-(cyclopropylmethylamino)-7H-pyrrolo[2,3-d]pyrimidin-5-yl]-[2-fluoro-6-[(6-methoxy-3-pyridyl)amino]-3-pyridyl]methanone], the IC50 on CYP2C19 was 5 to 10 µM; on BCR-FMS BaF3 cells it was under 0.01 µM; at CYP2C9, over 10 µM.

Take `CCCNc1ncnc2[nH]cc(C(=O)c3ccc(Nc4ccc(OC)nc4)nc3F)c12` [Compound P-4068, [2-fluoro-6-[(6-methoxy-3-pyridyl)amino]-3-pyridyl]-[4-(propylamino)-7H-pyrrolo[2,3-d]pyrimidin-5-yl]methanone]: the values for the IC50 on CYP2C19, at BCR-FMS BaF3 cells and on CYP2C9 were over 10 µM, under 0.01 µM and over 10 µM, respectively.

As for `COc1ccc(Nc2ccc(C(=O)c3c[nH]c4ncnc(N5CCCCC5)c34)c(F)n2)cn1` [Compound P-4069, [2-fluoro-6-[(6-methoxy-3-pyridyl)amino]-3-pyridyl]-[4-(1-piperidyl)-7H-pyrrolo[2,3-d]pyrimidin-5-yl]methanone], the results for the IC50 on CYP2C19, on BCR-FMS BaF3 cells and on CYP2C9 were 5 to 10 µM, over 1 µM and over 10 µM, respectively.

For the compound `COc1ccc(Nc2ccc(C(=O)c3c[nH]c4ncnc(N5CCOCC5)c34)c(F)n2)cn1` [Compound P-4070, [2-fluoro-6-[(6-methoxy-3-pyridyl)amino]-3-pyridyl]-(4-morpholino-7H-pyrrolo[2,3-d]pyrimidin-5-yl)methanone], the IC50 on CYP2C19 is over 10 µM; at BCR-FMS BaF3 cells, over 1 µM; at CYP2C9 it was over 10 µM.

With `COc1ccc(Nc2ccc(C(=O)c3c[nH]c4ncnc(NCc5ccc(C(F)(F)F)nc5)c34)c(F)n2)cn1` [Compound P-4071, [2-fluoro-6-[(6-methoxy-3-pyridyl)amino]-3-pyridyl]-[4-[[6-(trifluoromethyl)-3-pyridyl]methylamino]-7H-pyrrolo[2,3-d]pyrimidin-5-yl]methanone], the IC50 on CYP2C19 is over 10 µM; on BCR-FMS BaF3 cells, under 0.1 µM; at CYP2C9, over 10 µM.

On to `COc1ccc(Nc2ccc(C(=O)c3c[nH]c4ncnc(N[C@@H](C)c5ccc(F)cc5)c34)c(F)n2)cn1` [Compound P-4072, [2-fluoro-6-[(6-methoxy-3-pyridyl)amino]-3-pyridyl]-[4-[[(1S)-1-(4-fluorophenyl)ethyl]amino]-7H-pyrrolo[2,3-d]pyrimidin-5-yl]methanone], for which the IC50 was under 10 µM at CYP2C19, under 0.1 µM on BCR-FMS BaF3 cells and 5 to 10 µM at CYP2C9.

Consider `COc1ccc(Nc2ccc(C(=O)c3c[nH]c4ncnc(NCC5CCCO5)c34)c(F)n2)cn1` (stereo not drawn) [Compound P-4073, [2-fluoro-6-[(6-methoxy-3-pyridyl)amino]-3-pyridyl]-[4-(tetrahydrofuran-2-ylmethylamino)-7H-pyrrolo[2,3-d]pyrimidin-5-yl]methanone], for which the IC50 on CYP2C19 was 5 to 10 µM; at BCR-FMS BaF3 cells, under 0.1 µM; at CYP2C9 it was over 10 µM.

For the compound `CCN1CCC(Nc2ncnc3[nH]cc(C(=O)c4ccc(Nc5ccc(OC)nc5)nc4F)c23)CC1` [Compound P-4074, [4-[(1-ethyl-4-piperidyl)amino]-7H-pyrrolo[2,3-d]pyrimidin-5-yl]-[2-fluoro-6-[(6-methoxy-3-pyridyl)amino]-3-pyridyl]methanone], the IC50 was 5 to 10 µM at CYP2C19, under 1 µM on BCR-FMS BaF3 cells and over 10 µM at CYP2C9.

As for `COc1ccc(Nc2ccc(C(=O)c3c[nH]c4ncnc(NC5CCCC5)c34)c(F)n2)cn1` [Compound P-4075, [4-(cyclopentylamino)-7H-pyrrolo[2,3-d]pyrimidin-5-yl]-[2-fluoro-6-[(6-methoxy-3-pyridyl)amino]-3-pyridyl]methanone], the IC50 at CYP2C19 was 5 to 10 µM; at BCR-FMS BaF3 cells it was under 0.01 µM; at CYP2C9, over 10 µM.

As to `COc1ccc(Nc2ccc(C(=O)c3c[nH]c4ncnc(NC5CCC5)c34)c(F)n2)cn1` [Compound P-4076, [4-(cyclobutylamino)-7H-pyrrolo[2,3-d]pyrimidin-5-yl]-[2-fluoro-6-[(6-methoxy-3-pyridyl)amino]-3-pyridyl]methanone], the IC50 is 5 to 10 µM at CYP2C19, under 0.1 µM at BCR-FMS BaF3 cells and over 10 µM at CYP2C9.
